# According to patent US20080015147A1, “Method for inhibiting neuronal cell death” (priority 2006, published 2008):
# “Also recorded” adds a separate entry of the source.
# Experiments:
# Format in all cases: cell-based, mouse
# N38 cells [1] = assay: MTT assay (mitochondrial activity); conditions: for MTT activity (optical density): 48 hrs, 2×10^−7 M
# Method: The effect of TCAP-1 on cell proliferation at each pH was examined by direct counts using a hemocytometer and indirectly by assessing mitochondrial activity using a colorimetric MTT (3-[4,5-dimethylthiazol-2-yl]-2,5-diphenyl tetrazolium bromide) assay on cultured N38 cells. For hemocytometer counts, the cultures were incubated for 24 and 48 hrs. The cells were suspended using 1 ml of 0.25% Trypsin with EDTA (Gibco-Invitrogen, Burlington, Canada), centrifuged at 1600 RPM for 4 min, and resuspended with PBS. The cells in 50 μl aliquots were vortexed and counted on a hemocytometer.
# A (3-4,5-dimethylthiazol-2-yl]-2,5-diphenyl tetrazolium bromide) MTT assay was conducted using the In Vitro Toxicology Assay Kit: MTT based (Sigma, St. Louis). The cells were cultured for the MTT assay at 24 and 48 hours and were incubated at 37° C. in 5% CO2 for 3 hrs in the presence of MTT 200 μl/2 ml medium. The samples were mixed by shaking the plate horizontally for 30 min. The background absorbance of the multi-well plates was determined at 690 nm and subtracted from the 570 nm measurement.
# N38 cells [2] = assay: Fluorescent microscopy of necrosis and apoptosis markers; conditions: 48 hrs
# Method: N38 cells were cultured on poly-D-Lysine treated coverslips (VWR, Mississauga) in each of the four pH condition, and cells were washed twice with PBS, each fluorochrome was added to each well: 5 μl Fluorescein (FITC)-Annexin V in Tris EDTA buffer containing 0.1% BSA (Bovine serum albumin) and 0.1% NaN3, pH 7.5, 5 μl rhodamine EtD-III 200 μM in PBS and 5 μl 4′,6-Diamidino-2-phenylindole (DAPI) Hoechst 33342 5 μg/mL in PBS (Biotium, Inc. Hayward). The samples were incubated in the dark for 15 min, then washed before being placed on slides. The cells were viewed under a Leica DM4500 inverted fluorescent microscope and digitally analyzed using OpenLab software.
# Annexin V labelled with fluorescein (FITC) was used to identify apoptotic cells in green. Ethidium homodimer III (EtD-III) is a positively charged nucleic acid probe, which is impermeable to live or apoptotic cells but stains necrotic cells with red fluorescence (rhodamine) and Hoechst 3342 (4′,6-Diamidino-2-phenylindole) (DAPI) emits bright blue fluorescence upon binding to DNA in living cells.
# N38 cells [3] = assay: Bromodeoxyuridine (BrdU) incorporation assay; conditions: 24 or 48 hrs; pH extremes
# From the text: The evaluation of cell cycle progression is important when assessing the viability of a cell population. The cell cycle is a sequence of stages that a cell passes through between one division and the next. The cell cycle oscillates between mitosis and the interphase, which is divided into G, S, and G 2. In the G phase there is a high rate of biosynthesis and growth; in the S phase there is the doubling of the DNA content as a consequence of chromosome replication; in the G 2 phase the final preparations for cell division (cytokinesis) are made (Raza, 1985). In order to determine whether TCAP was increasing cell cycle efficiency, a bromodeoxyuridine (BrdU) non-isotopic enzyme immunoassay was conducted (Calbiochem, Canada). BrdU incorporation into newly synthesized DNA of actively proliferating cells enables one to quantify cell cycle progression and the population of cells entering the S phase(Gratzner, 1982; Raza, 1985).
# N38 cells were grown in a 96-well culture plate using 100 μl at an initial density of 2×10^5 cells/ml. Controls consisted of a blank, one well containing only DMEM with no cells and background, and one well with cells but with no BrdU label added. […] Absorbance was measured on a SPECTRAmax Microplate spectrophotometer at dual wavelengths at 450-540 nm.
# superoxide dismutase = assay: Superoxide dismutase gene expression by real-time PCR; conditions: p<0.01
# [4] = tested on: superoxide copper chaperone (CCSD); assay: Superoxide copper chaperone (CCSD) expression by real-time PCR; conditions: pH 8.4
# catalase = assay: Catalase gene expression by real-time PCR; conditions: p<0.001
substance,measurement,setting,value
teneurin C-terminus associated peptide [TCAP-1],MTT activity,N38 cells [1]; pH 6.8,did not induce a significant effect on MTT activity
same,MTT activity,N38 cells [1]; pH 7.4,did not induce a significant effect on MTT activity
same,MTT activity (optical density),N38 cells [1]; pH 8.0,significant increase in optical density; also recorded: increased the number of viable cells
same,MTT activity (optical density),N38 cells [1]; pH 8.4,significant increase in optical density; also recorded: increased the number of viable cells
same,number of rhodamine-fluorescing (necrotic) cells,N38 cells [2]; pH 6.8,decreased the number of rhodamine-fluorescing cells
same,number of rhodamine-fluorescing (necrotic) cells,"N38 cells [2]; pH 6.8, listed as TCAP",significantly decreased the amount of necrotic cells
same,number of rhodamine-fluorescing (necrotic) cells,N38 cells [2]; pH 8.0,decreased the number of rhodamine-fluorescing cells
same,number of rhodamine-fluorescing (necrotic) cells,"N38 cells [2]; pH 8.0, listed as TCAP",significantly decreased the amount of necrotic cells
same,number of rhodamine-fluorescing (necrotic) cells,N38 cells [2]; pH 8.4,decreased the number of rhodamine-fluorescing cells
same,number of rhodamine-fluorescing (necrotic) cells,"N38 cells [2]; pH 8.4, listed as TCAP",significantly decreased the amount of necrotic cells
same,BrdU incorporation,N38 cells [3],no significant results
same,superoxide dismutase gene expression vs vehicle,superoxide dismutase; pH 7.4,increase over the vehicle treated cells
same,superoxide dismutase gene expression vs vehicle,superoxide dismutase; pH 8.4,increase over the vehicle treated cells
same,CCSD expression increase over vehicle treated cells,[4],~4.5 fold
same,catalase mRNA induction,catalase; pH 8.0,3 fold
same,catalase mRNA induction,catalase; pH 8.4,5 fold
